Assay results from ChEMBL document CHEMBL4152191, “New potent and selective A1 adenosine receptor antagonists as potential tools for the treatment of gastrointestinal diseases” (Eur J Med Chem, 2018).
Activity calls are given as the source filed them. The calls are words filed in the database; no cut-off is given here.

Key:
[1] = biological target: T1, Adenosine receptor A2b (Homo sapiens, UniProt P29275); assay: Antagonist activity at recombinant human adenosine A2B receptor expressed in CHO cells assessed as inhibition of NECA-induced adenylyl cyclase activity after 20 mins by [alpha-32P]ATP assay; type: functional, cell-based
T1 sequence (P29275 whole entry): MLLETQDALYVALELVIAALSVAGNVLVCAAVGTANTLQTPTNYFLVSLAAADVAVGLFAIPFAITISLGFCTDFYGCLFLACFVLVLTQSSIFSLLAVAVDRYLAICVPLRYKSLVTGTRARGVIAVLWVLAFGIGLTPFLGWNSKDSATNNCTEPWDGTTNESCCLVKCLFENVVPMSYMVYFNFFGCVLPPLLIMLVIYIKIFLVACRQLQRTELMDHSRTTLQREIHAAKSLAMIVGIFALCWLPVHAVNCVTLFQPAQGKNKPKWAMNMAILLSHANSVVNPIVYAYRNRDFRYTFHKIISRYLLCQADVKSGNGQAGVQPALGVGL

[2] = biological target: T2, Adenosine receptor A1 (Mus musculus) (UniProt Q60612); assay: Activity at adenosine A1 receptor in BALB/C mouse ileum assessed as effect on frequency of rhythmic spontaneous contractions at 1 uM after 1 hr; type: functional
T2 sequence (whole entry): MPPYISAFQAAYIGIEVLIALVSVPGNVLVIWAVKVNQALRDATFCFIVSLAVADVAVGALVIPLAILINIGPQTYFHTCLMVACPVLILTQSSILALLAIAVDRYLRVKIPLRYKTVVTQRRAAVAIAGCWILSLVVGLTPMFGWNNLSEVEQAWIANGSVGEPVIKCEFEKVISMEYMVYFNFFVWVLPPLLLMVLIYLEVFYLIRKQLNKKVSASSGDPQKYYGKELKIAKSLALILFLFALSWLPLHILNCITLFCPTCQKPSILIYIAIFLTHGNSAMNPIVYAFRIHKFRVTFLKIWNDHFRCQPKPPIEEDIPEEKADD

[3] = organism: Homo sapiens; assay: Selectivity index, ratio of Ki for recombinant human adenosine A2B receptor to Ki for recombinant human adenosine A1 receptor
[4] = biological target: Adenosine receptors; A1 & A3 (Homo sapiens) (UniProt P30542+P0DMS8); assay: Selectivity index, ratio of Ki for recombinant human adenosine A3 receptor to Ki for recombinant human adenosine A1 receptor
[5] = biological target: T2, Adenosine receptor A1 (Mus musculus); assay: Activity at adenosine A1 receptor in BALB/C mouse ileum assessed as effect on amplitude of rhythmic spontaneous contractions at 1 uM after 1 hr; type: functional
[6] = organism: Homo sapiens; assay: Selectivity index, ratio of Ki for recombinant human adenosine A2A receptor to Ki for recombinant human adenosine A1 receptor
[7] = biological target: T3, Adenosine receptor A1 (Homo sapiens, UniProt P30542); assay: Displacement of [3H]CCPA from recombinant human adenosine A1 receptor transfected in CHO cell membranes after 3 hrs by microbeta scintillation counting analysis
T3 sequence (P30542 whole entry): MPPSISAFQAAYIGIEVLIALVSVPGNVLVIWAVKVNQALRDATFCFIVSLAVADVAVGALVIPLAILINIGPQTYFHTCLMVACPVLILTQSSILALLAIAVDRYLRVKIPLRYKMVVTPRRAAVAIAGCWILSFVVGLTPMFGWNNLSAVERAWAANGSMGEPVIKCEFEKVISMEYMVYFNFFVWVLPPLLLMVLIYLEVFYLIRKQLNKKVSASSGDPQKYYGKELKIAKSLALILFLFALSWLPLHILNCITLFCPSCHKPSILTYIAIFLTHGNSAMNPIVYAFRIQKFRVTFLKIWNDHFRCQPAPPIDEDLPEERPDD

[8] = biological target: T4, Adenosine receptor A3 (Homo sapiens, UniProt P0DMS8); assay: Displacement of [3H]NECA from recombinant human adenosine A3 receptor transfected in CHO cell membranes after 3 hrs by microbeta scintillation counting analysis
T4 sequence (P0DMS8 whole entry): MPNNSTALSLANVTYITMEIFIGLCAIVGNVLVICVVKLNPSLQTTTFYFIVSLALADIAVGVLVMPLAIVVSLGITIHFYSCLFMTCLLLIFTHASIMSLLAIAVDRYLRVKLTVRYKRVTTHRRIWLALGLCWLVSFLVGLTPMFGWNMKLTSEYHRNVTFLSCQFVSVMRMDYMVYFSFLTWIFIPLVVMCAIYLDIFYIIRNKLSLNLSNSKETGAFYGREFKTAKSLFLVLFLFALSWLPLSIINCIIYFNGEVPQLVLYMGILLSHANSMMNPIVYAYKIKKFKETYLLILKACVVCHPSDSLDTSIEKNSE

[9] = biological target: T2, Adenosine receptor A1 (Mus musculus); assay: Antagonist activity at adenosine A1 receptor in BALB/C mouse ileum assessed as reversal of CCPA-induced reduction in rhythmic spontaneous contractions at 1 uM after 1 hr; type: functional
[10] = biological target: Adenosine receptor A2a (Homo sapiens, UniProt P29274); assay: Displacement of [3H]NECA from recombinant human adenosine A2A receptor transfected in CHO cell membranes after 3 hrs by microbeta scintillation counting analysis
Chain of Adenosine receptor A2a (P29274 whole entry): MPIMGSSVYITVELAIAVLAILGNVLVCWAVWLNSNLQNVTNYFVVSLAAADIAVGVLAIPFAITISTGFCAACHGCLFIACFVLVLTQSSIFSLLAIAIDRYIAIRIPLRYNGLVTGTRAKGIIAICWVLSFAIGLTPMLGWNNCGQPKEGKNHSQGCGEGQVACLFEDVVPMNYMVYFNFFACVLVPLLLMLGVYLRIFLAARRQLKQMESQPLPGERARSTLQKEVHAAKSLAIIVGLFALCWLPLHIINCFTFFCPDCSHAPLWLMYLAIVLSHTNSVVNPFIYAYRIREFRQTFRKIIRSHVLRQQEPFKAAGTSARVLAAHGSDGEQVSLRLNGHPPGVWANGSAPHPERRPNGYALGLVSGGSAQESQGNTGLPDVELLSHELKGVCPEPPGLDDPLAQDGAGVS

[11] = biological target: T3, Adenosine receptor A1; assay: Antagonist activity at recombinant human adenosine A1 receptor transfected in CHO cells assessed as inhibition of CCPA-induced cAMP accumulation preincubated for 10 mins followed by CCPA addition by GloSensor cAMP assay; type: functional, cell-based
[12] = biological target: T2, Adenosine receptor A1 (Mus musculus); assay: Antagonist activity at adenosine A1 receptor in BALB/C mouse ileum assessed as reversal of 1 uM CCPA-induced reduction in rhythmic spontaneous contractions by measuring tissue response at 1 uM after 1 hr (reference value: 20%); type: functional; parameters: scale not given: the % may be the effect or the level left
[13] = biological target: T2, Adenosine receptor A1 (Mus musculus); assay: Reversible antagonist activity at adenosine A1 receptor in BALB/C mouse ileum assessed as reversal of CCPA-induced reduction in rhythmic spontaneous contractions at 1 uM incubated for 1 hr measured after compound wash out; type: functional
[14] = biological target: T2, Adenosine receptor A1 (Mus musculus); assay: Antagonist activity at adenosine A1 receptor in BALB/C mouse ileum assessed as reversal of 0.1 uM CCPA-induced reduction in rhythmic spontaneous contractions by measuring tissue response at 1 uM after 1 hr (reference value: 65%); type: functional; parameters: scale not given: the % may be the effect or the level left

SMILES	Ki [1]	Activity [2]	Ratio Ki [3]	Ratio Ki [4]	Activity [5]	Ratio Ki [6]	Ki [7]	Ki [8]	Kb [9]	Ki [10]	IC50 [11]	Activity [12]	inhibition [13]	Activity [14]
Cn1c(-c2ccc(O)cc2)nc2c(NC3CCCC3)ncnc21	17800 nM	inactive	1050	31	inactive	31	17 nM	521 nM	66 nM	532 nM	52 nM			
CCn1c(-c2ccccc2)nc2c(NC3CCOC3)ncnc21 (stereo not given)	11500 nM		1150	166		102	10 nM	1660 nM		1020 nM				
Cn1c(-c2ccc(F)cc2)nc2c(NC3CCCC3)ncnc21	> 30000 nM	inactive	> 4840	184	inactive	387	6.2 nM	1140 nM	43 nM	2400 nM	32 nM			
CCCn1c(-c2ccccc2)nc2c(NC3CCOC3)ncnc21 (stereo not given)	9080 nM		363	112		68	25 nM	2810 nM		1700 nM				
COc1ccc(-c2nc3c(NC4CCCC4)ncnc3n2C)cc1	> 30000 nM		> 400	25		24	75 nM	1850 nM		1790 nM				
Cn1c(-c2ccccc2)nc2c(NC3CCCC3)ncnc21	8510 nM	inactive	3040	302	inactive	178	2.8 nM	846 nM	17 nM	498 nM	14 nM	75%	Active	100%
Cn1c(-c2ccccc2)nc2c(N)ncnc21	7790 nM		339	609		17	23 nM	14000 nM		381 nM				
Cn1c(-c2ccccc2)nc2c(NC3CCCCC3)ncnc21	> 30000 nM		> 5260	416		92	5.7 nM	2370 nM		527 nM				
Cn1c(-c2ccc(C(=O)O)cc2)nc2c(NC3CCCC3)ncnc21	> 30000 nM		> 0.6	0.5		> 1.9	54000 nM	25700 nM		> 100000 nM				
Cn1c(-c2ccc(Cl)cc2)nc2c(NC3CCCC3)ncnc21	> 30000 nM		> 1670	67		101	18 nM	1210 nM		1820 nM				
Cc1ccc(-c2nc3c(NC4CCCC4)ncnc3n2C)cc1	> 30000 nM	inactive	> 3750	60	inactive	225	8 nM	480 nM	177 nM	1800 nM	61 nM			
Cn1c(-c2ccccc2)nc2c(NC3CCOC3)ncnc21 (stereo not given)	13300 nM		1660	783		229	8 nM	6260 nM		1830 nM				
Cn1c(-c2ccccc2Cl)nc2c(NC3CCCC3)ncnc21	> 30000 nM		> 811	19		83	37 nM	720 nM		3080 nM				
Cc1cccc(-c2nc3c(NC4CCCC4)ncnc3n2C)c1	6030 nM	inactive	973	82	inactive	73	6.2 nM	510 nM	33 nM	450 nM	43 nM			
Cc1ccccc1-c1nc2c(NC3CCCC3)ncnc2n1C	> 30000 nM		> 545	55		127	55 nM	3000 nM		6980 nM				
Cn1c(-c2cccnc2)nc2c(NC3CCCC3)ncnc21	> 30000 nM		> 124	45		26	242 nM	11000 nM		6330 nM				
CCn1c(-c2ccccc2)nc2c(NC3CCCCC3)ncnc21	9020 nM		902	71		31	10 nM	707 nM		307 nM				

Molecules with a lower Ki [1], results first:

Ki [1]	Activity [2]	Ratio Ki [3]	Ratio Ki [4]	Activity [5]	Ratio Ki [6]	Ki [7]	Ki [8]	Kb [9]	Ki [10]	IC50 [11]	Activity [12]	inhibition [13]	Activity [14]	SMILES
1440 nM		240	14		63	6 nM	84 nM		379 nM					CCn1c(-c2ccccc2)nc2c(NC3CCC3)ncnc21
3020 nM		97	186		7	31 nM	5780 nM		212 nM					CCn1c(-c2ccccc2)nc2c(N)ncnc21
5790 nM		1480	91		86	3.9 nM	354 nM		334 nM					CCn1c(-c2ccccc2)nc2c(NC3CCCC3)ncnc21
5310 nM		197	87		39	27 nM	2360 nM		1060 nM					CCCn1c(-c2ccccc2)nc2c(NC3CCCCC3)ncnc21
2530 nM		389	79		41	6.5 nM	514 nM		267 nM					Cn1c(-c2cccc(Cl)c2)nc2c(NC3CCCC3)ncnc21
3430 nM		343	75		63	10 nM	749 nM		634 nM					CCCn1c(-c2ccccc2)nc2c(NC3CCCC3)ncnc21
3730 nM		1170	88		95	3.2 nM	280 nM		303 nM					Cn1c(-c2ccccc2)nc2c(NC3CCC3)ncnc21
774 nM		52	18		24	15 nM	264 nM		365 nM					CCCn1c(-c2ccccc2)nc2c(NC3CCC3)ncnc21
1040 nM		10	92		5	101 nM	9280 nM		492 nM					CCCn1c(-c2ccccc2)nc2c(N)ncnc21
